Measurements as given in ChEMBL document CHEMBL1124908, “Synthesis and antiviral activity of 3'-deoxy-3'-C-hydroxymethyl nucleosides” (J Med Chem, 1990).
In brackets after ≈: the same amount, converted by molar mass.

Legend:
[1] = system: CV-1; experiment: Inhibitory concentration which is active against Varicella zoster virus (VZV) in CV-1 cells; type: functional, cell-based, Cercopithecidae; details: Chlorocebus aethiops
[2] = system: MRC5; experiment: Inhibitory concentration which is active against Varicella zoster virus (VZV) in MRC-5 cells; type: functional, cell-based; details: Homo sapiens
[3] = system: Human alphaherpesvirus 3; experiment: Minimum inhibitory concentration which is active against Varicella zoster virus (VZV); value ranges from 0.0002-0.003 ug/mL; type: functional
[4] = system: Human alphaherpesvirus 1; experiment: Minimum inhibitory concentration which is active against herpes simplex virus type-1 (HSV-1); value ranges from 0.007-0.01 ug/mL; type: functional
[5] = system: Human alphaherpesvirus 3; experiment: Anti-viral activity which is required for the inhibition of VZV (Varicella zoster virus ); type: functional, organism-based

| Compound | IC50 [1] [ng/mL] | IC50 [2] [ng/mL] | MIC [3] [ng/mL] | MIC [4] [ng/mL] | IC50 [5] [ng/mL] |
| --- | --- | --- | --- | --- | --- |
| O=c1[nH]c(=O)n(C2O[C@H](CO)[C@H](CO)[C@H]2O)cc1/C=C/Br (stereo not given in full) | 4400 (≈ 12.1 µM) | 15300 (≈ 42.1 µM) |  |  |  |
| O=c1[nH]c(=O)n([C@H]2C[C@H](O)[C@@H](CO)O2)cc1/C=C/Br [BRIVUDINE] |  |  | 0.2 (≈ 0.0006 µM) | 7 (≈ 0.021 µM) | 2.4 (≈ 0.0072 µM) |
